Results on 2 molecules are retold here after article PMC10412597, “Small molecule branched-chain ketoacid dehydrogenase kinase (BDK) inhibitors with opposing effects on BDK protein levels” (Nature Communications, 2023).

The target in assay [1] is T1, Androgen Receptor (Homo sapiens, UniProt P10275).
T1 construct: gene AR
Further details: Cerep Bioprint off-target panel, ligand binding inhibition. As to conditions: binder. The protocol:
(§1) To discover a potent and selective BDK inhibitor, a subset of the Pfizer compound collection was screened. […] Off target activity was assessed in both CEREP and kinase panels (Supplementary Tables 2, 3).

Assay [2] deals with T2, Dopamine Transporter (Homo sapiens, UniProt Q01959).
T2 construct: gene SLC6A3
Also noted: Cerep Bioprint off-target panel, ligand binding inhibition. As to conditions: binder. The procedure: as §1

In assay [3] the target is T3, GABAa1 Receptor (Homo sapiens, UniProt P14867+P18507+P47870).
T3 construct: gene GABRA1; alpha1
Further details: Cerep Bioprint off-target panel, ligand binding inhibition. The conditions noted are these: binder. The procedure:
as §1

For assay [4], the target named is T4, Norepinephrine Transporter (Homo sapiens, UniProt P23975).
T4 construct: gene SLC6A2
Further details: Cerep Bioprint off-target panel, ligand binding inhibition. As to conditions: binder. The procedure: as §1

Assay [5] has as its target T5, Serotonin 5-HT3 (Homo sapiens, UniProt P46098).
T5 construct: gene HTR3A
Also noted: Cerep Bioprint off-target panel, ligand binding inhibition. The conditions noted are these: binder. The procedure: as §1

Assay [6] addresses Kdr Kinase (VEGFR2) (Homo sapiens, UniProt P35968). Nature of the assay: biochemical. Further details: Cerep Bioprint off-target panel, enzyme or kinase inhibition. The protocol:
as §1

Assay [7] concerns the target T6, Cannabinoid CB1 (Homo sapiens, UniProt P21554).
T6 construct: gene CNR1
Nature of the assay: cell-based. Also noted: Cerep Bioprint off-target panel, functional receptor agonism or antagonism. The protocol: as §1

Assay [8] concerns the target CAMKK2 (Homo sapiens, UniProt Q96RR4). Also noted: Invitrogen Lantha screen kinase binding, per cent inhibition of binding. The conditions noted are these: 10 µM, binder. The protocol:
as §1

The target in assay [9] is T7, Dual-specificity tyrosine-(Y)-phosphorylation regulated kinase 2 (DYRK) (Homo sapiens, UniProt Q92630).
T7 construct: gene DYRK2
Also noted: Invitrogen Lantha screen kinase binding, per cent inhibition of binding. As to conditions: 10 µM, binder. The protocol:
as §1

Assay [10] deals with MAP3K11 (Homo sapiens, UniProt Q16584). Further details: Invitrogen Lantha screen kinase binding, per cent inhibition of binding. The conditions noted are these: 10 µM, binder. The procedure: as §1
Sequence of MAP3K11 (Q16584 whole entry): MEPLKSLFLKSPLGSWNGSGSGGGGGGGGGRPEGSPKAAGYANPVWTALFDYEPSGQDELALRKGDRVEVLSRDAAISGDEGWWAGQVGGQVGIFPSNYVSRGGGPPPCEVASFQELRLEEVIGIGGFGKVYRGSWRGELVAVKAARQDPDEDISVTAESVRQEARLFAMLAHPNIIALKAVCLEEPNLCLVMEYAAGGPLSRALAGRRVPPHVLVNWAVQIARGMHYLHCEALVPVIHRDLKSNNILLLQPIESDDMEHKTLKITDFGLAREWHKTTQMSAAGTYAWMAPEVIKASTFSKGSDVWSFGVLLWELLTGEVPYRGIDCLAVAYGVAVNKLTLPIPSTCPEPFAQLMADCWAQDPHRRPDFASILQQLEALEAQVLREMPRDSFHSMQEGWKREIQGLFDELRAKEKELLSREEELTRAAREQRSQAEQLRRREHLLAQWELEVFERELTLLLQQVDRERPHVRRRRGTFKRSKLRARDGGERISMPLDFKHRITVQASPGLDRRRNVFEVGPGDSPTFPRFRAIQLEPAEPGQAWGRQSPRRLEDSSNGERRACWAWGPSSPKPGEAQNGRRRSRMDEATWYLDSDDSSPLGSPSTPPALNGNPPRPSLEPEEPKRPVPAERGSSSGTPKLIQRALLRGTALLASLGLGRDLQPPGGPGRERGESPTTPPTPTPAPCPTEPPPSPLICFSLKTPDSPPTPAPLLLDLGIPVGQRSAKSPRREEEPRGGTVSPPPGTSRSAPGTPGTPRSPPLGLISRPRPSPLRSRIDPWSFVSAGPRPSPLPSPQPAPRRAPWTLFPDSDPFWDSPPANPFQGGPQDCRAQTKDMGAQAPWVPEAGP
Assay [11] has as its target MAPK15 (Homo sapiens, UniProt Q8TD08). Also noted: Invitrogen Lantha screen kinase binding, per cent inhibition of binding. The conditions noted are these: 10 µM, binder. The protocol: as §1
Assay [12] addresses MKNK2 (Homo sapiens, UniProt Q9HBH9). Also noted: Invitrogen Lantha screen kinase binding, per cent inhibition of binding. The conditions noted are these: 10 µM, binder. The protocol:
as §1

Assay [13] concerns the target MYLK (Homo sapiens, UniProt Q15746). Also noted: Invitrogen Lantha screen kinase binding, per cent inhibition of binding. The conditions noted are these: 10 µM, binder. The protocol: as §1
Assay [14] deals with PKN2 (Homo sapiens, UniProt Q16513). Also noted: Invitrogen Lantha screen kinase binding, per cent inhibition of binding. The conditions noted are these: 10 µM, binder. The procedure: as §1
Assay [15] addresses T8, Protein kinase, AMP-activated, alpha 1 beta 1 gamma 2 complex (Homo sapiens, UniProt Q13131+Q9UGJ0+Q9Y478).
T8 construct: gene PRKAA1
Also noted: Invitrogen Lantha screen kinase binding, per cent inhibition of binding. The conditions noted are these: 10 µM, binder. The protocol: as §1

Assay [16] addresses TGF-beta activated kinase 1/MAP3K7 binding protein 1 (MAP3K7IP1) (Homo sapiens, UniProt O43318). Further details: Invitrogen Lantha screen kinase binding, per cent inhibition of binding. As to conditions: 10 µM, binder. The protocol: as §1
The target in assay [17] is TGFBR2 (Homo sapiens, UniProt P37173). Further details: Invitrogen Lantha screen kinase binding, per cent inhibition of binding. As to conditions: 10 µM, binder. The protocol:
as §1

Assay [18] concerns the target TTK (Homo sapiens, UniProt P33981). Further details: Invitrogen Lantha screen kinase binding, per cent inhibition of binding. As to conditions: 10 µM, binder. The procedure:
as §1

The structures appear in SMILES notation. pEC50, pIC50: −log10 of the molar value.

T5 sequence (P46098 whole entry): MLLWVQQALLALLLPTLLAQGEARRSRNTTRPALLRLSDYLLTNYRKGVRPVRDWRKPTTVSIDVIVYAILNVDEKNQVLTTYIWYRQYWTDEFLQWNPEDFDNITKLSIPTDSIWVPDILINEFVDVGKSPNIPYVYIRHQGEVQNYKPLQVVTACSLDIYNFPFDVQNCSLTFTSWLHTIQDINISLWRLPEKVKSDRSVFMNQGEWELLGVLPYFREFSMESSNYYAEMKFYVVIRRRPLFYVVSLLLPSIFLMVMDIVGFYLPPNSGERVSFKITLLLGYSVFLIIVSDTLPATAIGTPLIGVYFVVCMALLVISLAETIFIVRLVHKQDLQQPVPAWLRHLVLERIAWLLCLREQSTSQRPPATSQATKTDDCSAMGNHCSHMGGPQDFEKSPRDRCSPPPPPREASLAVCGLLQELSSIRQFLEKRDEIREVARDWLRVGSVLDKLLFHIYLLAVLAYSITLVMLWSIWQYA
T8 sequence (Q13131 whole entry): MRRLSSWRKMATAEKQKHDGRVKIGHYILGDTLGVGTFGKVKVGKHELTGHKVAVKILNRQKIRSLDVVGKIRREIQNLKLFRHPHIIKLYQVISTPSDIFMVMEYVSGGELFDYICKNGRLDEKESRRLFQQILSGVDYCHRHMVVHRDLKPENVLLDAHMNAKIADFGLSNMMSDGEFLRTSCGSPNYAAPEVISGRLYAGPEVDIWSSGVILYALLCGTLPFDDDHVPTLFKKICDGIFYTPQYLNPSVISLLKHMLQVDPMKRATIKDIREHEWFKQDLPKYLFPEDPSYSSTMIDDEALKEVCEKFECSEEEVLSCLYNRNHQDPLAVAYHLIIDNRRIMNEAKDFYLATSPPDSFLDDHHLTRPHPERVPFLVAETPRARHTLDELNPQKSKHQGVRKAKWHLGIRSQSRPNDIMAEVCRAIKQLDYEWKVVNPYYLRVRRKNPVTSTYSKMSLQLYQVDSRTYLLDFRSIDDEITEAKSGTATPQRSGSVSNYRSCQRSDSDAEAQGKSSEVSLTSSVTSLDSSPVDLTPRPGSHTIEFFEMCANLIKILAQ
T8 sequence (Q9UGJ0 whole entry): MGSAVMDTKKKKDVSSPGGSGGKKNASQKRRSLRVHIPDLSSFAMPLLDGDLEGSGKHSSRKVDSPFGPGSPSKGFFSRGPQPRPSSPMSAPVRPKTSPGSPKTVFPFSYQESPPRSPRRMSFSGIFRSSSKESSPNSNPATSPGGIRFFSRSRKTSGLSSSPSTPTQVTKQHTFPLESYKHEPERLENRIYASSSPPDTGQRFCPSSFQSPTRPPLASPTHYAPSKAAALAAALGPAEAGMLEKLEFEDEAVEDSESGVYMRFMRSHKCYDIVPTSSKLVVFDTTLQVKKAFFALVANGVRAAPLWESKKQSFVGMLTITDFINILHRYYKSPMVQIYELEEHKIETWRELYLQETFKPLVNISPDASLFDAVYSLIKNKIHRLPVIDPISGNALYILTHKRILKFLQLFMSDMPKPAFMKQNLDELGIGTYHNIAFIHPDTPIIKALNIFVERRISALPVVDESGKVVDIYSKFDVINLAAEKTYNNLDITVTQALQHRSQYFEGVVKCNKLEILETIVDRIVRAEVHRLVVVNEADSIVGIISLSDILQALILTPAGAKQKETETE
T8 sequence (Q9Y478 whole entry): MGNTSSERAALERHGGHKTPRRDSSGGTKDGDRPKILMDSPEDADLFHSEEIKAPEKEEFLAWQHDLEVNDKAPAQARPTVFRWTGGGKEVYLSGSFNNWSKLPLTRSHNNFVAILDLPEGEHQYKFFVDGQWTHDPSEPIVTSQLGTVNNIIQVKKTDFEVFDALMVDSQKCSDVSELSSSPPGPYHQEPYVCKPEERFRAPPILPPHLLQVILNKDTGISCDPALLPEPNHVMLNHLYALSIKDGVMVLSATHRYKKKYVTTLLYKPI
Sequence of TTK (P33981 whole entry): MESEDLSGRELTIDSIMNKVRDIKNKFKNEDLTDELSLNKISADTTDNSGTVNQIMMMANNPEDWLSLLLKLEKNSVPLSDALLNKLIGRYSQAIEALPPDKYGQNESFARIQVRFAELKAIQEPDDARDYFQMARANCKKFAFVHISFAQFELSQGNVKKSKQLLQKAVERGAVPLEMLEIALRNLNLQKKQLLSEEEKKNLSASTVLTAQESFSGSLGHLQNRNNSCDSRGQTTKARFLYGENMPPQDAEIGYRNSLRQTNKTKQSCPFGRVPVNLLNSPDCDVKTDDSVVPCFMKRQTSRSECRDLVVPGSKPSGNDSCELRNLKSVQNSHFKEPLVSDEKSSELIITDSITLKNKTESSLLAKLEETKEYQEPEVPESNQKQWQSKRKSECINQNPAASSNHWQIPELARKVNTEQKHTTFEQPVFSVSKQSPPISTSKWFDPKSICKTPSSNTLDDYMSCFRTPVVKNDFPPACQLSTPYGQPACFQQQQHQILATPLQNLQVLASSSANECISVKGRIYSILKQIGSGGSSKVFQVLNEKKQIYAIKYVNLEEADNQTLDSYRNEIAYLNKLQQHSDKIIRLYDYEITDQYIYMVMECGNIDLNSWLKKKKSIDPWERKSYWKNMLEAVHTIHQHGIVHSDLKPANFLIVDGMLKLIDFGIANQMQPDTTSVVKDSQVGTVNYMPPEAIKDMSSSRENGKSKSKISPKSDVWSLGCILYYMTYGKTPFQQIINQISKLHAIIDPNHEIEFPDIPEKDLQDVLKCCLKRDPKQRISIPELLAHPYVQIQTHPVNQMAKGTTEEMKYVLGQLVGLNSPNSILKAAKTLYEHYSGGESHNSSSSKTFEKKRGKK
Sequence of MKNK2 (Q9HBH9 whole entry): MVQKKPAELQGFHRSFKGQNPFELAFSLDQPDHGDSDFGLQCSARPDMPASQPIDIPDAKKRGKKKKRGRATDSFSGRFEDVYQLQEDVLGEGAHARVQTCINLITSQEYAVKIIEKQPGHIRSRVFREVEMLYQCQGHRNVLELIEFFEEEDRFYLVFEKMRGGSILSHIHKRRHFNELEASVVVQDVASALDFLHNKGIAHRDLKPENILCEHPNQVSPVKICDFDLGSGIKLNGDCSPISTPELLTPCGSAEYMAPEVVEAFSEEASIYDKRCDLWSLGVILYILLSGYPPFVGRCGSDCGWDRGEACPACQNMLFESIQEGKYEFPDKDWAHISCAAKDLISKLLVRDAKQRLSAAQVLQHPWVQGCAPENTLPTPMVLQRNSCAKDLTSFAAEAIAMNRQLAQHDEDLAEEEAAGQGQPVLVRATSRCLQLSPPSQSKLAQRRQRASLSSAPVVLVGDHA
Sequence of TGFBR2 (P37173 whole entry): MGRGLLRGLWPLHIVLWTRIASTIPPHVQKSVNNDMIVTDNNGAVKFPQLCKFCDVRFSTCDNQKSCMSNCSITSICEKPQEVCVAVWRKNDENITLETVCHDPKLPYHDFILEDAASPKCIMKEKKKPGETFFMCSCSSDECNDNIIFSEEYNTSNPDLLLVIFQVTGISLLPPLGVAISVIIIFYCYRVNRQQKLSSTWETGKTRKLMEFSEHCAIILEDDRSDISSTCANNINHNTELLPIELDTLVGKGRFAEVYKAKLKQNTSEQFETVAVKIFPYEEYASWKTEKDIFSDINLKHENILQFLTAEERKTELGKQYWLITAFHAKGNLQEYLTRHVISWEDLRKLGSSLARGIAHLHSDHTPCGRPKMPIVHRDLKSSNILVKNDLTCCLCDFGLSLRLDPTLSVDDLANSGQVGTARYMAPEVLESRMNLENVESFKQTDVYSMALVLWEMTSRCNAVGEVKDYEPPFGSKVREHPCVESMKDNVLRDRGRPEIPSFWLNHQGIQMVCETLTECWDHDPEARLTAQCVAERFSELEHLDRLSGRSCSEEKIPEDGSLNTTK

For orientation: pIC50 means −log10 of the IC50, conventionally taken in molar units. As a reminder, the pEC50 is the EC50 on a negative log10 scale, so that one unit is a factor of ten. Higher therefore signals a small EC50. In the case of `O=C(O)c1sc2cc(F)sc2c1Cl` [PF-07208254, 3-chloro-5-fluorothieno[3,2-b]thiophene-2-carboxylic acid], the “% Inhibition (binding) PF-07208254” value in assay [1] (100 µM) was -4%; in assay [2] (100 µM) it was 7%; in assay [3] (100 µM), -12%; in assay [4] (100 µM), -15%; in assay [5] (100 µM), -14%. The molecule further showed a pIC50 in assay [6] of 4.12. The negative-log EC50 (pEC50) in [7] is 3.74. Further, the “Lantha Binding % Inhibition PF-07208254” value in assay [8] was determined as 7.8%; in assay [9], 29.2%; in assay [10] it was 6.8%; in assay [11] it was 18.3%; in [12] it was 11.8%; in assay [13], 3.3%. Also, the “Lantha Binding % Inhibition PF-07208254” value in assay [14] is recorded as 8.1%; in [15] it was 5.9%; in [16] it was 2.6%; in assay [17] it was 15.9%; in assay [18] it was 16.2%.

For the molecule `CCC1(COc2ccc(-c3csc(-c4ccccc4C(=O)O)n3)cn2)CC1` [PF-07247685, 2-(4-{6-[(1-ethylcyclopropyl)methoxy]pyridin-3-yl}-1,3-thiazol-2-yl)benzoic acid], the “% Inhibition (binding) PF-07247685” value in assay [1] (10 µM) was -8%; in [2] (10 µM), -1%; in assay [3] (10 µM), -21%; in assay [4] (10 µM), 6%; in assay [5] (10 µM), 0%. Further, the “Lantha Binding % Inhibition PF-07247685” value is 1.8% in [8]; 1.9% in [9]; -2.2% in [10]; 2.4% in assay [11]; 1.2% in assay [12]; 1.3% in [13]. Also, the “Lantha Binding % Inhibition PF-07247685” value in assay [14] was -1.7%; in [15] it was 0.5%; in assay [16], -1.9%; in [17] it was 15.1%; in [18], 3.6%.
